Experimental data as given in ChEMBL document CHEMBL1136325, “Synthesis and biological evaluation of GABA derivatives able to cross the blood-brain barrier in rats” (2003).
Active and inactive are the calls of the source. No cut-off for these calls is given here.

Experiments:
Rattus norvegicus [1] = experiment: In vivo pentobarbital (30 mg/kg ip)-induced hypnosis in rats after intracerebroventricular administration at a dose of 15.6 uL by pretreatment with atropine (1.0 mg/kg iv); type: functional
Cavia porcellus [2] = species on record: Cavia porcellus; experiment: Effect on ileal tone in guinea pig up to 100 uM; No effect; type: functional
Rattus norvegicus [3] = experiment: In vivo pentobarbital (30 mg/kg ip)-induced hypnosis in rats after iv administration at a dose of 368 umol; type: functional
Rattus norvegicus [4] = experiment: In vivo pentobarbital (30 mg/kg ip)-induced hypnosis in rats after intracerebroventricular administration at a dose of 15.6 uL; type: functional
Cavia porcellus [5] = species on record: Cavia porcellus; experiment: Inhibitory activity against L-glutamic decarboxylase treated from 0.01 to 10 mM concentrations of the compound; Inactive
Rattus norvegicus [6] = experiment: In vivo pentobarbital (30 mg/kg ip)-induced hypnosis in rats after intracerebroventricular administration at a dose of 3.90 uL; type: functional
Rattus norvegicus [7] = experiment: In vivo pentobarbital (30 mg/kg ip)-induced hypnosis in rats after iv administration at a dose of 184 umol; type: functional
Rattus norvegicus [8] = experiment: In vivo pentobarbital (30 mg/kg ip)-induced hypnosis in rats after iv administration at a dose of 23 umol; type: functional
Rattus norvegicus [9] = experiment: In vivo pentobarbital (30 mg/kg ip)-induced hypnosis in rats; Moderate dyspnea; type: functional, organism-based
[10] = target: GABA-B receptor (Homo sapiens) (UniProt Q9UBS5+O75899); experiment: Antagonistic potency against Gamma-aminobutyric acid type B receptor of guinea pig ileum; type: functional, tissue-based; conditions: Cavia porcellus, target entry is the homologue from another species
Rattus norvegicus [11] = experiment: In vivo pentobarbital (30 mg/kg ip)-induced hypnosis in rats after iv administration at a dose of 46 umol; type: functional
Rattus norvegicus [12] = experiment: In vivo pentobarbital (30 mg/kg ip)-induced hypnosis in rats after intracerebroventricular administration at a dose of 7.80 uL; type: functional
Rattus norvegicus [13] = experiment: In vivo pentobarbital (30 mg/kg ip)-induced hypnosis in rats after intracerebroventricular administration at a dose of 7.80 uL by pretreatment with atropine (1.0 mg/kg iv); type: functional
Cavia porcellus [14] = species on record: Cavia porcellus; experiment: Inhibitory activity against L-glutamate decarboxylase treated from 0.01 to 10 mM concentrations of the compound; Inactive
Rattus norvegicus [15] = experiment: In vivo pentobarbital (30 mg/kg ip)-induced hypnosis in rats after intracerebroventricular administration at a dose of 1.95uL; type: functional
Rattus norvegicus [16] = experiment: In vivo pentobarbital (30 mg/kg ip)-induced hypnosis in rats after iv administration at a dose of 92 umol; type: functional

COS(=O)(=O)[O-].C[n+]1cccc(C(=O)NCCCC(=O)O)c1
Hypnosis duration (Rattus norvegicus [1]): 158 min
Ileal activity (Cavia porcellus [2]): inactive
Hypnosis duration (Rattus norvegicus [3]): 153 min
Hypnosis duration (Rattus norvegicus [4]): 100 min
Activity (Cavia porcellus [5]): inactive

NCCCC(=O)O [GAMMA-AMINOBUTYRIC ACID]
Hypnosis duration (Rattus norvegicus [6]): 188 min
Hypnosis duration (Rattus norvegicus [7]): 128 min

CN1C=CC(CC2C=CN(C)C=C2C(=O)NCCCC(=O)OCc2ccccc2)C(C(=O)NCCCC(=O)OCc2ccccc2)=C1 (centres undefined)
Hypnosis duration (Rattus norvegicus [8]): 206 min
Adverse effect (Rattus norvegicus [9]): Moderate dyspnea
Effect (Cavia porcellus [2]): inactive
pD2 [10]: 5.59
Hypnosis duration (Rattus norvegicus [11]): 257 min

CN1C=CC(CC2C=CN(C)C=C2C(=O)NCCCC(=O)[O-])C(C(=O)NCCCC(=O)[O-])=C1.[Na+].[Na+] (centres undefined)
Hypnosis duration (Rattus norvegicus [6]): 142 min
Hypnosis duration (Rattus norvegicus [12]): 60 min
Hypnosis duration (Rattus norvegicus [13]): 184 min
Ileal activity (Cavia porcellus [2]): inactive
Activity (Cavia porcellus [14]): inactive
Hypnosis duration (Rattus norvegicus [15]): 147 min
Hypnosis duration (Rattus norvegicus [7]): 80 min
Hypnosis duration (Rattus norvegicus [16]): 149 min

C[n+]1cccc(C(=O)NCCCC(=O)OCc2ccccc2)c1.[I-]
Hypnosis duration (Rattus norvegicus [8]): 156 min
Hypnosis duration (Rattus norvegicus [9]): Moderate dyspnea
Hypnosis duration (Rattus norvegicus [11]): 207 min
Hypnosis duration (Rattus norvegicus [16]): 194 min
